The results in this text go back to patent US20220331414A1, “LIPID COMPOUNDS AND LIPID NANOPARTICLE COMPOSITIONS” (Suzhou Abogen Biosciences Co., Ltd., priority 2020, published 2022).

The nature of data set [1]: Lipid nanoparticle size and polydispersity by dynamic light scattering. Particulars: LNP of cationic lipid/DSPC/cholesterol/PEG-lipid 50:10:38.5:1.5 with mRNA. Format: physicochemical. As to the method: (§1) Briefly, a cationic lipid provided herein, DSPC, cholesterol, and PEG-lipid were solubilized in ethanol at a molar ratio of 50:10:38.5:1.5, and mRNA were diluted in 10 to 50 mM citrate buffer, pH=4. The LNPs were prepared at a total lipid to mRNA weight ratio of approximately 10:1 to 30:1 by mixing the ethanolic lipid solution with the aqueous mRNA solution at a volume ratio of 1:3 using a microfluidic apparatus, total flow rate ranging from 9-30 mL/min. Ethanol were thereby removed and replaced by DPBS using dialysis. Finally, the lipid nanoparticles were filtered through a 0.2 μm sterile filter.
(§2) Lipid nanoparticle size were determined by dynamic light scattering using a Malvern Zetasizer Nano ZS (Malvern UK) using a 173° backscatter detection mode. The encapsulation efficiency of lipid nanoparticles were determined using a Quant-it Ribogreen RNA quantification assay kit (Thermo Fisher Scientific, UK) according to the manufacturer's instructions.

Data set [2] in a line: Apparent pKa of LNP formulations by TNS fluorescence assay. To be noted: LNP cationic lipid/DSPC/cholesterol/DMG-PEG 50/10/38.5/1.5 mol %, pH 3 to 9.
Protocol: TNS was prepared as a 300 uM stock solution in distilled water. LNP formulations were diluted to 0.1 mg/ml total lipid in 3 mL of buffered solutions containing 50 mM sodium citrate, 50 mM sodium phosphate, 50 mM sodium borate, and 30 mM sodium chloride where the pH ranged from 3 to 9. An aliquot of the TNS solution was added to give a final concentration of 0.1 mg/ml and following vortex mixing fluorescence intensity was measured at room temperature in a Molecular Devices Spectramax iD3 spectrometer using excitation and mission wavelengths of 325 nm and 435 nm. A sigmoidal best fit analysis was applied to the fluorescence data and the pKa value was measured as the pH giving rise to half—maximal fluorescent intensity.
Data set [3] in a line: Encapsulation efficiency of lipid nanoparticles (Quant-it Ribogreen RNA assay). Format: physicochemical. To be noted: LNP of cationic lipid/DSPC/cholesterol/PEG-lipid 50:10:38.5:1.5 with mRNA. As to the method: as §1, §2

SMILES strings stand for the structures.

As to `CCCCCCCCC(CC)COP(=O)(NCCN(CC)CC)OCC(CC)CCCCCCCC` (stereo not shown) [Compound 67], in data set [1], the polydispersity came out at 0.116 and the “size (nm)” value came to 86.9 nm. Besides, the “Apparant Pka” value in data set [2] amounted to 7.195. In addition, the “Encapsulation Efficiency” value in data set [3] turned out to be 93.3%.
In the same order, the values of `CCCCCCCCC(C)COP(=O)(NCCN1CCCC1)OCC(C)CCCCCCCC` (stereo not shown) [Compound 68] are 0.253, 86.75 nm, 7.401 and 95.0%.
In the case of `CCCCCCCCC(C)COP(=O)(NCCN(CC)CC)OCC(C)CCCCCCCC` (stereo not shown) [Compound 69], in data set [1], the polydispersity stood at 0.355 and the “size (nm)” value stood at 68.3 nm. Moreover, the “Apparant Pka” value in data set [2] worked out at 7.408. The “Encapsulation Efficiency” value in data set [3] was 87.1%.
In the case of `CCCCCCCCC(CCC)COP(=O)(NCCN(CC)CC)OCC(CCC)CCCCCCCC` (stereo not shown) [Compound 70], in data set [1], the polydispersity was 0.298 and the “size (nm)” value is recorded as 53.76 nm. Also, the “Apparant Pka” value in data set [2] is recorded as 6.153. For the same compound, the “Encapsulation Efficiency” value in data set [3] was 93.8%.
For `CCCCCCCCC(CCC)COP(=O)(NCCN1CCCC1)OCC(CCC)CCCCCCCC` (stereo not shown) [Compound 71], in data set [1], the polydispersity was 0.108 and the “size (nm)” value is 69.18 nm. Also, the “Apparant Pka” value in data set [2] was determined as 7.104. For the same compound, the “Encapsulation Efficiency” value in data set [3] is given as 94.4%.
For `CCCCCCCCC(CCCCC)COP(=O)(NCCN(CC)CC)OCC(CCCCC)CCCCCCCC` (stereo not shown) [Compound 72], in data set [1], the polydispersity was 0.154 and the “size (nm)” value was determined as 73.94 nm. In data set [2], the “Apparant Pka” value is given as 5.86. Further, in data set [3], the “Encapsulation Efficiency” value stood at 95.6%.
As to `CCCCCCCCC(CCCC)COP(=O)(NCCN1CCCC1)OCC(CCCC)CCCCCCCC` (stereo not shown) [Compound 73], in data set [1], the polydispersity came to 0.101 and the “size (nm)” value worked out at 70.54 nm. Moreover, the “Apparant Pka” value in data set [2] worked out at 7.003. Also, in data set [3], the “Encapsulation Efficiency” value is 91.4%.
As to `CCCCCCCCC(CCCCC)COP(=O)(NCCN1CCCC1)OCC(CCCCC)CCCCCCCC` (stereo not shown) [Compound 74], in data set [1], the polydispersity turned out to be 0.162 and the “size (nm)” value came to 66.97 nm. For the same compound, the “Apparant Pka” value in data set [2] is reported as 6.381. Further, the “Encapsulation Efficiency” value in data set [3] amounted to 96.9%.
Consider `CCCCCCCCC(CCCC)COP(=O)(NCCN(CC)CC)OCC(CCCC)CCCCCCCC` (stereo not shown) [Compound 75], for which, in data set [1], the polydispersity turned out to be 0.023 and the “size (nm)” value was determined as 138.2 nm. In data set [2], the “Apparant Pka” value is 6.603. Moreover, in data set [3], the “Encapsulation Efficiency” value is 92.1%.
As for `CCCCCCCCC(CCCCCC)COP(=O)(OCCN1CCCC1)OCC(CCCCCC)CCCCCCCC` (stereo not shown) [Compound 76], in data set [1], the polydispersity turned out to be 0.24 and the “size (nm)” value is on record as 74.49 nm. Moreover, in data set [2], the “Apparant Pka” value was 4.666. In addition, in data set [3], the “Encapsulation Efficiency” value is 76.6%.
Regarding `CCCCCCCCC(CCCCCC)COP(=O)(OCCN1CCCCC1)OCC(CCCCCC)CCCCCCCC` (stereo not shown) [Compound 77], in data set [1], the polydispersity worked out at 0.138 and the “size (nm)” value came to 63.36 nm. Besides, the “Apparant Pka” value in data set [2] is listed as 5.309. The “Encapsulation Efficiency” value in data set [3] was 85.2%.
Turning to `CCCCCCCCCCC(CCCCCCCC)COP(=O)(NCCN(CC)CC)OCC(CCCCCCCC)CCCCCCCCCC` (stereo not shown) [Compound 78], in data set [1], the polydispersity came to 0.234 and the “size (nm)” value turned out to be 63.03 nm. In addition, the “Apparant Pka” value in data set [2] came to 5.969. Besides, the “Encapsulation Efficiency” value in data set [3] came to 95.2%.
As to `CCCCCCCCCCC(CCCCCCCC)COP(=O)(NCCN1CCCC1)OCC(CCCCCCCC)CCCCCCCCCC` (stereo not shown) [Compound 79], in data set [1], the polydispersity turned out to be 0.053 and the “size (nm)” value was 71.16 nm. Also, the “Apparant Pka” value in data set [2] is given as 6.457. For the same compound, the “Encapsulation Efficiency” value in data set [3] is given as 96.3%.
As for `CCCCCCCCC(CCCCCCCC)COP(=O)(NCCN(CC)CC)OCC(CCCCCCCC)CCCCCCCC` [Compound 80], in data set [1], the polydispersity is 0.172 and the “size (nm)” value worked out at 57.31 nm. In addition, the “Apparant Pka” value in data set [2] is reported as 6.259. In data set [3], the “Encapsulation Efficiency” value amounted to 94.2%.
For the compound `CCCCCCCCC(CCCCCCCC)COP(=O)(NCCN1CCCC1)OCC(CCCCCCCC)CCCCCCCC` [Compound 81], in data set [1], the polydispersity came to 0.218 and the “size (nm)” value was found to be 56.41 nm. In addition, the “Apparant Pka” value in data set [2] is listed as 5.661. In data set [3], the “Encapsulation Efficiency” value is 92.7%.
In the case of `CCCCCCC(CCCCCC)COP(=O)(NCCN(CC)CC)OCC(CCCCCC)CCCCCC` [Compound 82], in data set [1], the polydispersity came to 0.138 and the “size (nm)” value came out at 70.5 nm. Also, the “Apparant Pka” value in data set [2] amounted to 6.097. For the same compound, the “Encapsulation Efficiency” value in data set [3] is reported as 86.9%.
For `CCCCCCC(CCCCCC)COP(=O)(NCCN1CCCC1)OCC(CCCCCC)CCCCCC` [Compound 83], in data set [1], the polydispersity turned out to be 0.056 and the “size (nm)” value came out at 82.63 nm. Also, the “Apparant Pka” value in data set [2] is 6.319. Besides, in data set [3], the “Encapsulation Efficiency” value was determined as 87.8%.
For `CCCCCCCC(CCCCCCC)COP(=O)(NCCN(CC)CC)OCC(CCCCCCC)CCCCCCC` [Compound 84], in data set [1], the polydispersity turned out to be 0.175 and the “size (nm)” value came out at 52.13 nm. Further, in data set [2], the “Apparant Pka” value came to 5.484. Also, the “Encapsulation Efficiency” value in data set [3] turned out to be 89.9%.
Take `CCCCCCCC(CCCCCCC)COP(=O)(NCCN1CCCC1)OCC(CCCCCCC)CCCCCCC` [Compound 85]: in data set [1], the polydispersity is 0.153 and the “size (nm)” value was determined as 53.57 nm. In data set [2], the “Apparant Pka” value stood at 5.216. The “Encapsulation Efficiency” value in data set [3] amounted to 71.7%.
As to `CCCCCCCCCCC(CCCCCCCCCC)COP(=O)(NCCN1CCCC1)OCC(CCCCCCCCCC)CCCCCCCCCC` [Compound 87], in data set [1], the polydispersity was found to be 0.045 and the “size (nm)” value is 66.05 nm. In data set [2], the “Apparant Pka” value is recorded as 6.303. Also, the “Encapsulation Efficiency” value in data set [3] was 93.8%.
`CC/C=C\CCC(CC/C=C\CC)COP(=O)(NCCN(CC)CC)OCC(CC/C=C\CC)CC/C=C\CC` [Compound 88]: in data set [1], the polydispersity was 0.205 and the “size (nm)” value amounted to 179.7 nm. In addition, the “Apparant Pka” value in data set [2] stood at 6.571. Further, the “Encapsulation Efficiency” value in data set [3] was 49.0%.
As to `CCCCCCCCC(CCCCCCCC)COP(=O)(NCCN(CC)CC)OCC(CCCCCC)CCCCCC` (stereo not shown) [Compound 90], in data set [1], the polydispersity turned out to be 0.242 and the “size (nm)” value came to 56.48 nm. Moreover, in data set [2], the “Apparant Pka” value was 5.526. Besides, the “Encapsulation Efficiency” value in data set [3] was 85.7%.
